pIC50: −log10 of the molar value.
Legend:
[1] = test system: pancreatic ductal adenocarcinoma (Panc-1); assay: Anti-tumor activity on Panc-1: cell viability by sulforhodamine or MTT assay; assay type: cell-based; conditions: Homo sapiens, Panc-1 cells, 96 hours treatment, 0.001-1000 nM
Method: The compounds according to the present invention were evaluated for their anti-tumor activities on pancreatic ductal adenocarcinoma (Panc-1). To this end, 0.5×10^6 human malignant cells were treated with various concentrations (0.001-1000 nM) for 96 hours of FK866 or the compounds according to the present invention. Subsequently cell viability was determined using either sulforhodamine assays as described in Caffa I, et al. (Oncotarget. 2015 May 20; 6(14):11820-32) or MTT assays. Sulforhodamine B is a dye able that binds to cellular proteins. […] For MTT assays, human malignant cells were plated in triplicate on 96-well plates and treated as mentioned above. After 96 hours of incubation, 15 μL of dye solution was added to each well and cells were incubated for an additional 4 hours. Stop solution (100 μL/well) was added for 1 hour and the absorbance was read at 570 nm on a spectrophotometer. To confirm whether the cytotoxicity exerted by these compounds involves programmed cell death, drug-induced cell death was evaluated using annexin V and 7AAD double staining as described by the manufacturer for assessing apoptosis or autophagic-cell death using a Beckman Coulter Cytomics Gallios flow cytometer. Dead cells were identified as annexinV+ and/or 7AAD+. GraphPad Prism version 7.00 (GraphPad Software, San Diego, Calif.) was used for IC50 calculation.

[2] = Pharmacokinetics after intraperitoneal administration in female SCID mice (plasma, LC-MS/MS, non compartmental analysis); assay type: in vivo; conditions: 20 mg/kg IP
Method: The pharmacokinetics parameters of FK866, FE1199, VAL22-2 and MPM07 were determined following intraperitoneal administration (IP) in female SCID mice.
• SCID (Severe Combined ImmunoDeficiency) mice female total 144 • 25 mM in DMSO (dimethylsulfoxyde) of each test drug • Saline solution (0.9%)
Test drugs were dissolved in saline solution at 20 mg/ml. All dosing solutions were controlled by HPLC (High-Performance Liquid Chromatography) analysis. Mouse weight is estimated around 20 g.
Three mice per time point were used in each group.
Blood samples were collected on citrate at 10 min, 30 min, 1 h, 2 h, 4 h, 6 h, 8 h and 24 hours after drug administration. Following centrifugation, resulting plasma was stored at […] pending bioanalysis. Samples were analyzed by LC-MS/MS (Liquid chromatography tandem-mass spectrometry); the lower limit of quantification achieved was between 3 and 12 nM depending on drug. Non compartmental pharmacokinetic analysis was performed on plasma concentration data.

| pIC50 [1] | Structure (SMILES) | other results |
| --- | --- | --- |
| 8.52 | COc1ccc(C(=O)N2CCC(CCCCNC(=O)/C=C/c3cccnc3)CC2)c(OC)c1 [FEI-56, (E)-N-(4-(1-(2,4-Dimethoxybenzoyl)piperidin-4-yl)butyl)-3-(pyridin-3-yl)acrylamide] | – |
| 9.22 | COc1cccc(OC)c1C(=O)N1CCC(CCCCNC(=O)/C=C/c2cccnc2)CC1 [FEI-58, (E)-N-(4-(1-(2,6-Dimethoxybenzoyl)piperidin-4-yl)butyl)-3-(pyridin-3-yl)acrylamide] | – |
| 9.00 | COc1cc(OC)c(C(=O)N2CCC(CCCCNC(=O)/C=C/c3cccnc3)CC2)c(OC)c1 [FEI-62, (E)-3-(Pyridin-3-yl)-N-(4-(1-(2,4,6-trimethoxybenzoyl)piperidin-4-yl)butyl)acrylamide] | – |
| 8.15 | COc1ccoc1C(=O)N1CCC(CCCCNC(=O)/C=C/c2cccnc2)CC1 [FEI-71, (E)-N-(4-(1-(3-Methoxyfuran-2-carbonyl)piperidin-4-yl)butyl)-3-(pyridin-3-yl)acrylamide] | – |
| 8.30 | O=C(/C=C/c1cccnc1)NCCCCC1CCN(C(=O)c2ccno2)CC1 [FEI-74, (E)-N-(4-(1-(Isoxazole-5-carbonyl)piperidin-4-yl)butyl)-3-(pyridin-3-yl)acrylamide] | – |
| 8.70 | COc1cc(C=O)cc(OC)c1C(=O)N1CCC(CCCCNC(=O)/C=C/c2cccnc2)CC1 [FEI-75, (E)-N-(4-(1-(4-Formyl-2,6-dimethoxybenzoyl)piperidin-4-yl)butyl)-3-(pyridin-3-yl)acrylamide] | – |
| 8.05 | O=C(/C=C/c1cccnc1)NC/C=C/CC1CCN(C(=O)c2ccccc2)CC1 [FEI-80, (E)-N-((E)-4-(1-Benzoylpiperidin-4-yl)but-2-en-1-yl)-3-(pyridin-3-yl)acrylamide] | – |
| 8.64 | COc1cccc(OC)c1C(=O)N1CCC(C/C=C/CNC(=O)/C=C/c2cccnc2)CC1 [FEI-81, (E)-N-((E)-4-(1-(2,6-Dimethoxybenzoyl)piperidin-4-yl)but-2-en-1-yl)-3-(pyridin-3-yl)acrylamide] | – |
| 9.40 | COc1cc(OC)c(C(=O)N2CCC(C/C=C/CNC(=O)/C=C/c3cccnc3)CC2)c(OC)c1 [FEI-82, (E)-3-(Pyridin-3-yl)-N-((E)-4-(1-(2,4,6-trimethoxybenzoyl)piperidin-4-yl)but-2-en-1-yl)acrylamide] | – |
| 7.82 | O=C(/C=C/c1cccnc1)NC/C=C/CC1CCN(C(=O)c2ccco2)CC1 [FEI-83, (E)-N-((E)-4-(1-(Furan-2-carbonyl)piperidin-4-yl)but-2-en-1-yl)-3-(pyridin-3-yl)acrylamide] | – |
| 8.70 | O=C(/C=C/c1cccnc1)NC/C=C/CC1CCN(C(=O)c2cccs2)CC1 [FEI-85, (E)-3-(Pyridin-3-yl)-N-((E)-4-(1-(thiophene-2-carbonyl)piperidin-4-yl)but-2-en-1-yl)acrylamide] | – |
| 8.41 | N#C/N=C(\NCCCCC1CCN(C(=O)c2ccccc2)CC1)Nc1ccncc1 [FEI-154, (E)-1-(4-(1-Benzoylpiperidin-4-yl)butyl)-2-cyano-3-(pyridin-4-yl)guanidine] | – |
| 8.17 | N#C/N=C(\NCCCCC1CCN(C(=O)c2ccco2)CC1)Nc1ccncc1 [FEI-158, (E)-2-Cyano-1-(4-(1-(furan-2-carbonyl)piperidin-4-yl)butyl)-3-(pyridin-4-yl)guanidine] | – |
| 7.74 | N#C/N=C(\NCCCCC1CCN(C(=O)c2ccco2)CC1)Nc1ccc(F)nc1 [FEI-170, (E)-2-Cyano-1-(6-fluoropyridin-3-yl)-3-(4-(1-(furan-2-carbonyl)piperidin-4-yl)butyl)guanidine] | – |
| 7.92 | N#C/N=C(\NCCCCC1CCN(C(=O)c2cccs2)CC1)Nc1ccc(F)nc1 [FEI-171, (E)-2-Cyano-1-(6-fluoropyridin-3-yl)-3-(4-(1-(thiophene-2-carbonyl)piperidin-4-yl)butyl)guanidine] | – |
| 8.59 | N#C/N=C(\NCCCCCC1CCN(C(=O)c2ccccc2)CC1)Nc1ccncc1 [FEI-190, (E)-1-(5-(1-Benzoylpiperidin-4-yl)pentyl)-2-cyano-3-(pyridin-4-yl)guanidine] | – |
| 8.72 | N#C/N=C(\NCCCCCC1CCN(C(=O)c2ccco2)CC1)Nc1ccncc1 [FEI-191, (E)-2-Cyano-1-(5-(1-(furan-2-carbonyl)piperidin-4-yl)pentyl)-3-(pyridin-4-yl)guanidine] | – |
| 8.64 | N#C/N=C(\NCCCCCC1CCN(C(=O)c2cccs2)CC1)Nc1ccncc1 [FEI-192, (E)-2-Cyano-1-(pyridin-4-yl)-3-(5-(1-(thiophene-2-carbonyl)piperidin-4-yl)pentyl)guanidine] | – |
| 8.32 | COc1cccc(OC)c1C(=O)N1CCC(CCCCCN/C(=N\C#N)Nc2ccncc2)CC1 [FEI-193, (E)-2-Cyano-1-(5-(1-(2,6-dimethoxybenzoyl)piperidin-4-yl)pentyl)-3-(pyridin-4-yl)guanidine] | – |
| 8.30 | N#C/N=C(\NC/C=C/CCC1CCN(C(=O)c2ccccc2)CC1)Nc1cccnc1 [FEI-194, (E)-1-((E)-5-(1-Benzoylpiperidin-4-yl)pent-2-en-1-yl)-2-cyano-3-(pyridin-3-yl)guanidine] | – |
| 8.34 | N#C/N=C(\NC/C=C/CCC1CCN(C(=O)c2ccco2)CC1)Nc1cccnc1 [FEI-195, (E)-2-Cyano-1-((E)-5-(1-(furan-2-carbonyl)piperidin-4-yl)pent-2-en-1-yl)-3-(pyridin-3-yl)guanidine] | – |
| 8.23 | N#C/N=C(\NC/C=C/CCC1CCN(C(=O)c2cccs2)CC1)Nc1cccnc1 [FEI-196, (E)-2-Cyano-1-(pyridin-3-yl)-3-((E)-5-(1-(thiophene-2-carbonyl)piperidin-4-yl)pent-2-en-1-yl)guanidine] | – |
| 8.30 | N#C/N=C(\NC/C=C/CCC1CCN(C(=O)c2ccccc2)CC1)Nc1ccncc1 [FEI-198, (E)-1-((E)-5-(1-Benzoylpiperidin-4-yl)pent-2-en-1-yl)-2-cyano-3-(pyridin-4-yl)guanidine] | – |
| 8.62 | N#C/N=C(\NC/C=C/CCC1CCN(C(=O)c2cccs2)CC1)Nc1ccncc1 [FEI-200, (E)-2-Cyano-1-(pyridin-4-yl)-3-((E)-5-(1-(thiophene-2-carbonyl)piperidin-4-yl)pent-2-en-1-yl)guanidine] | – |
| 8.09 | COc1cccc(OC)c1C(=O)N1CCC(CCCCNC(=O)Nc2ccncc2)CC1 [FEI-209, 1-(4-(1-(2,6-Dimethoxybenzoyl)piperidin-4-yl)butyl)-3-(pyridin-4-yl)urea] | – |
| 8.22 | COc1cccc(OC)c1C(=O)N1CCC(CCCCNC(=O)/C=C/c2cccnc2F)CC1 [MPM-08] | – |
| 8.70 | COc1cccc(OC)c1C(=O)N1CCC(CCCCNC(=O)/C=C/c2ccc(F)nc2F)CC1 [MPM-09] | – |
| 7.81 | COc1cc(C=O)cc(OC)c1C(=O)N1CCC(CCCCNC(=O)/C=C/c2cccnc2F)CC1 [MPM-13] | – |
| – | O=C(/C=C/c1cccnc1F)NCCCCC1CCN(C(=O)c2ccccc2)CC1 [VAL22-2, (E)-N-(4-(1-benzoylpiperidin-4-yl)butyl)-3-(2-fluoropyridin-3-yl)acrylamide] | CL ([2]; CL calculated as dose/AUC): 23.6 mL/h; Percentage of extrapolated AUC from T6 h to infinity ([2]; plasma, relative to AUC0-inf): 1.4%; T1/2α ([2]; plasma, t½α (0 -> 6 h)): 27.6 min; T1/2β ([2]; plasma, t½β (6 -> 24 h)): 515 min; half-lives in the second phase (6 h→24 h) compared with FK866 ([2]; plasma, versus FK866): improved and longer half-lives; Cmax ([2]; mouse, plasma): 16900 ng/mL; Tmax ([2]; mouse, plasma): 10 min; AUC(0-inf) ([2]; mouse, plasma, log-trapezoidal rule, extrapolated to infinity): 8470 ng·h/mL; AUC(0-t) ([2]; mouse, plasma, read-out: AUC0-8 h): 8400 ng·h/mL |
